# Values joined by “and” are separate entries in the source; they are usually repeats but may differ in a detail not shown here. Equal entries are not always repeated. Active and inactive are the calls of the source. How the calls were made is not given here.
# Molecular target: Peptidyl-prolyl cis-trans isomerase FKBP1A (Homo sapiens) (UniProt P62942)
# Experiment: small-molecule binding to FKBP12 – biophysical, NMR detection (AID 608)
# Conditions: purified FKBP12
# Peptidyl-prolyl cis-trans isomerase FKBP1A (Homo sapiens), sequence (P62942 whole entry, looked up): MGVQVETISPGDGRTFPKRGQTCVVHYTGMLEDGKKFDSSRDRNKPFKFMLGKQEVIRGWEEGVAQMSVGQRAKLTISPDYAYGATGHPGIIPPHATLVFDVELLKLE
row,SMILES,Kd
1,O=C(O)c1cccnc1,> 4 mM (inactive)
2,CSc1ccc(C(=S)N2CCN(C)CC2)cc1,> 4 mM (inactive)
3,S=C(c1ccc2c(c1)OCO2)N1CCCC1,> 4 mM (inactive)
4,Brc1ccccc1Cn1c(-c2cscn2)nc2ccccc21,inactive
5,O=S1(=O)C=CC(Nc2ccccc2)C1 (stereo not given),> 4 mM (inactive)
6,O=C(Nc1ccc(N2CCOCC2)cc1)C1CC1,> 4 mM (inactive)
7,OCC1CCCN2CCCCC12 (stereo not given),> 4 mM (inactive)
8,CN1C2CC[C@@H]1CC(OC(=O)[C@H](CO)c1ccccc1)C2 (stereo not given in full),> 4 mM (inactive)
9,CN(c1ccccc1C(=O)N1CCOCC1)S(C)(=O)=O,> 4 mM (inactive)
10,CCOC(=O)c1c(C)nc2cc(C)ccn12,> 4 mM (inactive)
11,COc1ccc(OCC(=O)N2CCOCC2)cc1,inactive
12,CNc1nc(OC)nc(N2CCOCC2)n1,> 4 mM (inactive)
13,Cc1occc1C(=O)Nc1nnc(-c2ccncc2)s1,> 4 mM (inactive)
14,COc1ccc2c(c1)OCC(Cc1ccc(OC)c(OC)c1)C2=O (stereo not given),> 4 mM (inactive)
15,CC(=O)Nc1nnc(-c2ccc(Cn3c(-c4cscn4)nc4ccccc43)cc2)s1,inactive
16,Oc1ccc(C2SCCS2)cc1,> 4 mM (inactive)
17,Nc1nc(-c2nc3ccccc3[nH]2)cs1,0.068 mM and 0.098 mM
18,Nc1cccc(CC(=S)N2CCOCC2)c1,> 4 mM (inactive)
19,CC12CN3CC(C)(CN(C1)C3c1cccs1)C2O (stereo not given),> 4 mM (inactive)
20,O=C(O)c1ccc2snnc2c1,> 4 mM (inactive)
21,COCC(=O)NC1CC(C)(C)NC(C)(C)C1,> 4 mM (inactive)
22,COc1ccccc1-c1c(C)nn2c(C)c(C(C)=O)cnc12,> 4 mM (inactive)

row,SMILES,Kd
1,NC1=NCc2ccccc21,> 4 mM (inactive)
2,CC1CN(C(=O)COc2ccccc2Cl)CC(C)O1 (stereo not given),> 4 mM (inactive)
3,OC1CCN(c2nccc(C(F)(F)F)n2)CC1,> 4 mM (inactive)
4,Nc1cccc(OC(F)(F)F)c1,> 4 mM (inactive)
5,O=C(Nc1nc2c(s1)CCCC2)c1cccnc1,> 4 mM (inactive)
6,Cc1nc2c(=O)[nH]c3ccccc3c2o1,> 4 mM (inactive)
7,O=c1[nH]cc(N=Cc2ccc(F)cc2)c(=O)[nH]1,> 4 mM (inactive)
8,Cc1nc(CC(=O)O)c(-c2ccccc2)s1,> 4 mM (inactive)
9,NC12CC3CC(C1)CC(CC(=O)O)(C3)C2,> 4 mM (inactive)
10,CC(CC(=O)NN)C1(O)CCCCC1 (stereo not given),> 4 mM (inactive)
11,O=c1c2ccccc2nc(-c2ccco2)n1-c1nccs1,> 4 mM (inactive)
12,Cc1ccc(N2C(=O)C3C4C=CC(O4)C3C2=O)cc1 (stereo not given),> 4 mM (inactive)
13,CCOc1cc(S(=O)(=O)n2nc(C)cc2C)ccc1F,> 4 mM (inactive)
14,Nc1cc(F)nc(F)n1,> 4 mM (inactive)
15,O=C1C2CCCCC2C(=O)N1Cc1cccnc1 (stereo not given),> 4 mM (inactive)
16,O=c1[nH]cc(CN2CCOCC2)c(=O)[nH]1,> 4 mM (inactive)
17,CCOC(=O)c1cc(C)n(C)n1,> 4 mM (inactive)
18,CCOc1ccc(-c2n[nH]c(=S)n2C)cc1,> 4 mM (inactive)
19,Cc1nn2c(=O)c(NC(=O)c3ccccc3)cnc2s1,> 4 mM (inactive)
20,O=[N+]([O-])c1cccc(-c2c[n+](=O)c3c(n2[O-])CCC3)c1,> 4 mM (inactive)
21,Nc1ccc(NC(=O)c2ccco2)c(Cl)c1,> 4 mM (inactive)
22,COc1ccc2nc(NC(=O)c3cnccn3)sc2c1,> 4 mM (inactive)

row,SMILES,Kd
1,O=c1cc(-c2ccccc2)oc2cc(O)cc(O)c12,> 4 mM (inactive)
2,NC(=O)c1ccc(N2CCCCC2)c(N)c1,> 4 mM (inactive)
3,CC(=O)Nc1ccc(S(=O)(=O)N2CCN=C2C)cc1,> 4 mM (inactive)
4,Cc1cc(C(=O)N2CCN(c3ccccn3)CC2)no1,> 4 mM (inactive)
5,Nc1ccc(Cl)nn1,> 4 mM (inactive)
6,Cc1ccccc1NC(=O)C1CC(=O)N=C(N)S1 (stereo not given),> 4 mM (inactive)
7,O=c1[nH]cc(N2CCCCC2)c(=O)[nH]1,> 4 mM (inactive)
8,O=C(COc1cccc(Cl)c1)N1CCOCC1,inactive
9,C/C=C(/C)C(=O)O[C@@H]1[C@H](OC(C)=O)[C@@]2(CO)C(CC1(C)C)C1=CCC3[C@@]4(C)CC[C@H](O[C@@H]5O[C@H](C(=O)O)[C@@H](O[C@@H]6O[C@H](CO)[C@@H](O)[C@H](O)[C@H]6O)[C@H](O)[C@H]5O[C@@H]5O[C@H](CO)[C@@H](O)[C@H](O)[C@H]5O)[C@](C)(CO)C4CC[C@@]3(C)[C@]1(C)C[C@H]2O (stereo not given in full),> 4 mM (inactive)
10,Cn1ncc(NC(=O)Nc2ccc(F)cc2F)c1C(N)=O,> 4 mM (inactive)
11,CNC(=O)C(=O)Nc1cccc(Cl)c1,> 4 mM (inactive)
12,O=S(=O)(Nc1ccc(F)cc1)N1CCCCC1,inactive
13,C[C@@H]1OC(O[C@H]2C(O[C@H]3CC[C@@]4(C)C(CC[C@]5(C)C4CC=C4C6CC(C)(C)CC[C@]6(C(=O)O)CC[C@]45C)[C@]3(C)CO)OC[C@H](O)[C@@H]2O)[C@H](O)[C@H](O)[C@H]1O (stereo not given in full),> 4 mM (inactive)
14,CC(=O)O[C@H]1CC[C@@]2(C)C(=CCC3C2CC[C@@]2(C)C3CC[C@@H]2C(C)CCCC(C)C)C1 (stereo not given in full),> 4 mM (inactive)
15,Cc1cc(C(=O)NN2CCOCC2)c(C)o1,> 4 mM (inactive)
16,c1n[nH]cc1-c1cn[nH]c1,> 4 mM (inactive)
17,Cc1ccc(OCC(=O)n2cnnc2N)c(C)c1,> 4 mM (inactive)
18,Nc1ccc(OC(F)(F)F)cc1,> 4 mM (inactive)
19,COC(=O)c1cccnc1Oc1ccccc1,> 4 mM (inactive)
20,O=C1NNC(=O)C2C3c4ccccc4C(c4ccccc43)C12 (stereo not given),> 4 mM (inactive)
21,COc1cc2c(cc1OC)[C@@H]1C(=O)c3ccc(O)c(CC=C(C)C)c3O[C@@H]1CO2,> 4 mM (inactive)
22,O=C1CCCC2C3CC(CN12)[C@@H]1CCCCN1C3 (stereo not given in full),> 4 mM (inactive)

row,SMILES,Kd
1,CC(C)NC(=O)c1nc2ccccc2s1,> 4 mM (inactive)
2,O=C(Nc1ccc2c(c1)OCCO2)c1c(F)cccc1F,> 4 mM (inactive)
3,Cc1cc(NC(=O)Cc2cccs2)no1,> 4 mM (inactive)
4,Cc1cc(=O)[nH]c(NCC(=O)O)n1,> 4 mM (inactive)
5,NC(=O)CSc1nnc(-c2cccnc2)o1,> 4 mM (inactive)
6,NC(C(=O)O)C(O)c1ccccc1 (stereo not given),> 4 mM (inactive)
7,CNC(=S)NCCN1CCOCC1,> 4 mM (inactive)
8,CCC(=O)Nc1cccc(NC(C)=O)c1,> 4 mM (inactive)
9,Nc1nncn1C(=O)c1ccccc1Cl,> 4 mM (inactive)
10,CN(C)C(=O)CCNS(=O)(=O)c1ccccc1,> 4 mM (inactive)
11,O=C(Nc1c[nH]c(=O)[nH]c1=O)c1cccs1,> 4 mM (inactive)
12,O=C(COc1ccccc1O)NCCO,> 4 mM (inactive)
13,O=C(CSc1ncn[nH]1)c1ccccc1,> 4 mM (inactive)
14,Cc1cc(NC(=O)CSc2ccnc(=O)[nH]2)no1,> 4 mM (inactive)
15,CCn1nnc(NC(=O)c2ccccc2Br)n1,> 4 mM (inactive)
16,CNC(=O)Nc1ccc(C(=O)NC)cc1,> 4 mM (inactive)
17,Cc1ccc(SCC(=O)N2CCOCC2)cc1,0.022 mM and 0.012 mM
18,c1ccc(Cc2nnc3sc(-c4ccccn4)nn23)cc1,> 4 mM (inactive)
19,CN(C)Cc1nc2c([nH]1)c(=O)[nH]c(=O)n2C,> 4 mM (inactive)

# From PubChem BioAssay AID608 (Sanford-Burnham Center for Chemical Genomics, 2007)
